According to US8716226B2, “3,5 phenyl-substituted beta amino acid derivatives as integrin antagonists” (Saint Louis University, priority 2012, dated 2014):

Key:
α5β1 = molecular target: T1, α5β1 (Homo sapiens, UniProt P05556+P08648); test: K562 cell adhesion assay for α5β1 function; type: cell-based; conditions: K562 cells, adhesion to human plasma fibronectin
T1 construct: K562 cells (American Type Culture Collection, Manassas, Va.) which naturally express high levels of α5β1; endogenous in cells; host or cells: K562 (human erythroleukemia, ATCC)
Description: K562 Cell Adhesion Assay for α5β1 Function.
(§1) Purified human plasma fibronectin (Calbiochem/EMD Biosciences) diluted to 5 μg/ml in TS buffer (25 mM Tris 7.4, 150 mM NaCl) was added to wells (100 μl/well) of a 96-well microtiter plate (Immulon 2HB 96-well; VWR Scientific) and incubated overnight at 4° C. The solution in each well was then replaced with 200 μl of blocking buffer (TS with 1% bovine serum albumin), and the plate incubated for 1 hr at 37° C. Compounds were diluted in test tubes to 2× the peak testing concentration in cell adhesion buffer consisting of Hanks Buffered Salts Solution (HBSS, cation-free, Sigma), 0.1% bovine serum albumin, 25 mM HEPES, and 200 μM MnCl2. […] The cells were washed with the cell adhesion buffer, counted using a hemocytometer, centrifuged and resuspended in cell adhesion buffer at 3×10^6 cells/ml. […] Remaining attached cells were detected by addition of 100 μl/well p-nitrophenylphosphate (Sigma) solution (15 mg tablet dissolved in 25 ml 50 mM NaAcetate, pH 5; 0.5% Triton-X-100), incubation for 30 min at 37° C., and then addition of 50 μl/well 1N NaOH to stop the enzyme reaction. Plates were read by colorimetric detection at 405 nm wavelength using a Tecan Safire II plate reader. Concentration-response curves were constructed by non-linear regression (best fit) analysis, and IC50 values were calculated for each compound. […]

αvβ6 = molecular target: T2, αvβ6 (Homo sapiens, UniProt P06756+P18564); test: HT-29 cell adhesion assay for αvβ6 function; type: cell-based; conditions: HT-29 cells, adhesion to human LAP
T2 construct: HT-29 cells (American Type Culture Collection, Manassas, Va.), which naturally express αvβ6; endogenous in cells; host or cells: HT-29 (human colon adenocarcinoma, ATCC)
Description: HT-29 Cell Adhesion Assay for αvβ6 Function.
as §1, with “human LAP protein (R&D Systems, Inc)” for “human plasma fibronectin (Calbiochem/EMD Biosciences)”, “to 0.2” for “to 5”, “at 4×10^6” for “at 3×10^6”, “NaAcetate, pH5;” for “NaAcetate, pH 5;”

T2 sequence (P06756 31-889 limits assumed): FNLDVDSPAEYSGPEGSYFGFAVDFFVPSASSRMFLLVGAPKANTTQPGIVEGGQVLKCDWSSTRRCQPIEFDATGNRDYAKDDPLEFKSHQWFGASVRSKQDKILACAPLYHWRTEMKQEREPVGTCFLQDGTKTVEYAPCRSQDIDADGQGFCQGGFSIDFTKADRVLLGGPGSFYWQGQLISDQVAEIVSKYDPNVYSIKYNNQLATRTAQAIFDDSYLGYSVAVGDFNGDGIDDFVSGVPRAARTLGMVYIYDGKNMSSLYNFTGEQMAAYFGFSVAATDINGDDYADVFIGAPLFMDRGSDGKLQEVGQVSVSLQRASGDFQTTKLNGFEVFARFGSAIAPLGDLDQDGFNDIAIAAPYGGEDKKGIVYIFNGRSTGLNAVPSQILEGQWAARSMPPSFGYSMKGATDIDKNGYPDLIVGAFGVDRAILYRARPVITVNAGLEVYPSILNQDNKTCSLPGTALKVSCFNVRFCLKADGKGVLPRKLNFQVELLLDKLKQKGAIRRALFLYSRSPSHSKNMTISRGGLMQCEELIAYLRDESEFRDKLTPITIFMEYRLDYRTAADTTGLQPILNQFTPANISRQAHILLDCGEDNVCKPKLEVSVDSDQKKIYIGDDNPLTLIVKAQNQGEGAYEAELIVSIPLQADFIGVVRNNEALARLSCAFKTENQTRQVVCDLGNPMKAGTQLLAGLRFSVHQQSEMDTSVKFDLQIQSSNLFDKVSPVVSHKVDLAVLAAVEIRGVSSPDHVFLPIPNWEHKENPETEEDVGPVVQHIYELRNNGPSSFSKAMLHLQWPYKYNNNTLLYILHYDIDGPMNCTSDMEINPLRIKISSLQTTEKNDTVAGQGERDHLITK
T2 sequence (P06756 891-1048 partner limits assumed): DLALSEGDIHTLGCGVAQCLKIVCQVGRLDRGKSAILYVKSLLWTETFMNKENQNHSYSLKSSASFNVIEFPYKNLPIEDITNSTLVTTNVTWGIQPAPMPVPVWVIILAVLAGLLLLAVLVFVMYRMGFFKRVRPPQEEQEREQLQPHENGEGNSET
T2 sequence (P18564 22-788): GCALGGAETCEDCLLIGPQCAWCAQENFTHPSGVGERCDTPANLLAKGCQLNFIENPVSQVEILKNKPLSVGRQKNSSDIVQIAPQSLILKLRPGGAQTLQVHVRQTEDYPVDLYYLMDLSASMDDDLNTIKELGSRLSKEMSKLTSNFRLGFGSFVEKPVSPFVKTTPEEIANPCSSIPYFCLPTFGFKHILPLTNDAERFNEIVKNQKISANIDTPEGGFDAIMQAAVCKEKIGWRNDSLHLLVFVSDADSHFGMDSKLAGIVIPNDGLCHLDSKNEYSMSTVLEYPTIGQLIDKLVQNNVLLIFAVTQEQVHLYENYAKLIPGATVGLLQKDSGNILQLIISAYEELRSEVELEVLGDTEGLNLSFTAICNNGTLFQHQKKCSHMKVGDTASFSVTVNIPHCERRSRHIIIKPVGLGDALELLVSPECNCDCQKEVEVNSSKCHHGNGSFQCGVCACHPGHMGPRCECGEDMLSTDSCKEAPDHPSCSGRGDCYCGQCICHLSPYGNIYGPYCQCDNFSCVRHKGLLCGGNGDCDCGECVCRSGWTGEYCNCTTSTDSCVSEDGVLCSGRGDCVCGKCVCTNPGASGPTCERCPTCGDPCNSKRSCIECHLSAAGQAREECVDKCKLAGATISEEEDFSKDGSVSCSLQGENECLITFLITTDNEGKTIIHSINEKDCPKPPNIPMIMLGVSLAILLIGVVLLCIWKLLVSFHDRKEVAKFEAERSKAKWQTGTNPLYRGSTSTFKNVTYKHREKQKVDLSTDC
T1 sequence (P08648 42-894 limits assumed): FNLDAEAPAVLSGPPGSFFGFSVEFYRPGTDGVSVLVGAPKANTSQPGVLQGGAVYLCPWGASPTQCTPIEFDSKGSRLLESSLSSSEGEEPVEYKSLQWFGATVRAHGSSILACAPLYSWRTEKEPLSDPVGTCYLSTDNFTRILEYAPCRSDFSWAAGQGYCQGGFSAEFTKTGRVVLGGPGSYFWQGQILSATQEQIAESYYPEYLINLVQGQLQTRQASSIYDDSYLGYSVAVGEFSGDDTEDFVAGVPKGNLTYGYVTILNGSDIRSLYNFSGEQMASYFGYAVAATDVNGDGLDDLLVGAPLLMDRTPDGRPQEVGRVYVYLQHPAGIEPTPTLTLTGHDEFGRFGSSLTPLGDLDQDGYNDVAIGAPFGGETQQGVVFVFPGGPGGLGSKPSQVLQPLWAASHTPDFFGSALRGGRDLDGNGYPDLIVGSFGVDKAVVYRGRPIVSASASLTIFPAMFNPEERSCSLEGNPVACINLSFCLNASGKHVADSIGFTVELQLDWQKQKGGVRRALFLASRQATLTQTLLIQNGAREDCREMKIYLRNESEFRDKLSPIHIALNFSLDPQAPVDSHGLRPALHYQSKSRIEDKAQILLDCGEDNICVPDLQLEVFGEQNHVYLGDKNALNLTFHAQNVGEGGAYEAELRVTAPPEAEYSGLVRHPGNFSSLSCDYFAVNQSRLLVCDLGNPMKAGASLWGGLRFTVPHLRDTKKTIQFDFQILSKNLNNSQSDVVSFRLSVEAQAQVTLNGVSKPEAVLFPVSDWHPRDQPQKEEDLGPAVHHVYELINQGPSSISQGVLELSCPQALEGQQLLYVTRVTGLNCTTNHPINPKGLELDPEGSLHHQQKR
T1 sequence (P08648 895-1049 partner limits assumed): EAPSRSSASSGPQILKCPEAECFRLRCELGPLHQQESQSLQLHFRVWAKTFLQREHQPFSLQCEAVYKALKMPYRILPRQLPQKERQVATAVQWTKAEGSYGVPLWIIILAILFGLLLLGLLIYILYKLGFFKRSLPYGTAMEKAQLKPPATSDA
T1 sequence (P05556 21-798): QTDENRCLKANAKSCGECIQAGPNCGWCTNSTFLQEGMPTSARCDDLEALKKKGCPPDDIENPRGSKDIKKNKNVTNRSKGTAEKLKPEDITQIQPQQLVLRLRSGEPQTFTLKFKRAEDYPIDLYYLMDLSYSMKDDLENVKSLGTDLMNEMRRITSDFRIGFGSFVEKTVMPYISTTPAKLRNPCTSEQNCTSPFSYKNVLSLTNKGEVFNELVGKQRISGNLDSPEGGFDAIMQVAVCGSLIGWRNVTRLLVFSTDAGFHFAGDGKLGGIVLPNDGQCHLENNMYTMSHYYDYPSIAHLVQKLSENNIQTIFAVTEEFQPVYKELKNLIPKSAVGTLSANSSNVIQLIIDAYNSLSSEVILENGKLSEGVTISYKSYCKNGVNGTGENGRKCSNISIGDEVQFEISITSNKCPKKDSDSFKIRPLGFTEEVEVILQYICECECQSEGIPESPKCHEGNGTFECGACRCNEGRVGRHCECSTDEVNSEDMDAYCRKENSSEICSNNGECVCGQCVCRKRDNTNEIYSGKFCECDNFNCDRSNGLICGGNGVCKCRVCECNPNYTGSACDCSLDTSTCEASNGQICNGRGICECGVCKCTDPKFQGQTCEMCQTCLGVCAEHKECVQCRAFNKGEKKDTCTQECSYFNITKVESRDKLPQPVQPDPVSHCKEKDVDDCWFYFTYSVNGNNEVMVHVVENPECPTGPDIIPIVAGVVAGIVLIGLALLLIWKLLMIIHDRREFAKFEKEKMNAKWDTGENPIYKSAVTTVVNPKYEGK

CC(C)(C)c1cc(Br)cc([C@H](CC(=O)O)NC(=O)CNC(=O)c2cc(O)cc(NC3=NCC(O)CN3)c2)c1 (stereo partly drawn) [Example 1, (3S)—N-[3-hydroxy-5-[(1,4,5,6-tetrahydro-5-hydroxy-2-pyrimidinyl)amino]benzoyl]glycyl-3-(3-bromo-5-tert-butylphenyl)-β-alanine]
IC50 (α5β1): 4.2 nM | IC50 (αvβ6): 1.5 nM
